According to patent US5674872A, “Treatment of ovarian cancer” (SmithKline Beecham Corporation, priority 1995, dated 1997):

Legend:
[1] = Stability of diluted topotecan solutions in plastic bags at room temperature; assay type: physicochemical
Description: Solution Preparation--When the 5 mg vial is reconstituted with 2 ml of Sterile Water for Injection, USP, each ml will contain 2.5 mg of topotecan as the base and 50 mg of mannitol, USP. Topotecan must not be diluted or mixed with buffered solutions because of solubility and stability considerations.
Stability--Shelf life surveillance of the intact vials is ongoing. Because the single-use lyophilized dosage form contains no antibacterial preservatives, it is advised that the reconstituted solution be discarded eight hours after initial entry into the vial. Futher dilutions of the reconstituted solution to concentrations of 0.02 mg/ml and 0.1 mg.ml in 5% Dextrose Injection, USP, ("D5W") or 0.9% Sodium Chloride Injection, USP, ("NS") in plastic bags stored at room temperature yielded the following stability results: […]

[2] = Stability of diluted topotecan in a hang-bag; assay type: physicochemical; conditions: 24 hours
Description: Topotecan diluted in saline (10 ug/ml or 500 ug/ml) or dextrose (6.7 ug/ml or 330 ug/ml) is stable in a hang-bag for 24 hours with at least 95% recovery.

ovarian cancer = experiment: Treatment of a human patient with ovarian cancer, tumor size regression evaluated by CAT scan; assay type: in vivo; conditions: one platinum-refractory patient, 1.5 mg/m^2/day i.v. for five consecutive days, sustained at least until the tenth treatment
Description: One human patient with ovarian cancer, who was refractory to two previous platinum-containing regimens (i.e., cisplatin-cyclophosphamide combination regimen and treatment with single agent carboplatin), received a course of therapy comprising intravenous administration of 1.5 mg of topotecan/m^2 of body surface area per day for five consecutive days. This course of therapy was repeated […] nine more times to date at twenty-one day intervals (from the date of initiation of therapy) for a total of ten treatments. Tumor size regression was evaluated by CAT (computerized axial tomography) scan. […] At least until the tenth treatment, this clinically significant response was sustained, i.e., a greater than fifty percent (50%) tumor size regression was obtained.

CC[C@@]1(O)C(=O)OCc2c1cc1n(c2=O)Cc2cc3c(CN(C)C)c(O)ccc3nc2-1 [Topotecan, (S)-10[(dimethylamino)methyl]-4-ethyl-4,9-dihydroxy-1 H-pyrano[3',4':6,7]indolizino[1,2-b]quinolone-3,14(4 H,12 H)-dione]
Percentage of Initial Topotecan Remaining in Solution ([1]; D5W, 0.02 mg/ml, 0 hrs): 100.00%
Percentage of Initial Topotecan Remaining in Solution ([1]; D5W, 0.02 mg/ml, 6 hrs): 99.29%
Percentage of Initial Topotecan Remaining in Solution ([1]; D5W, 0.02 mg/ml, 24 hrs): 102.30%
Percentage of Initial Topotecan Remaining in Solution ([1]; D5W, 0.02 mg/ml, 48 hrs): 101.98%
Percentage of Initial Topotecan Remaining in Solution ([1]; D5W, 0.1 mg/ml, 0 hrs): 100.00%
Percentage of Initial Topotecan Remaining in Solution ([1]; D5W, 0.1 mg/ml, 6 hrs): 99.68%
Percentage of Initial Topotecan Remaining in Solution ([1]; D5W, 0.1 mg/ml, 24 hrs): 98.16%
Percentage of Initial Topotecan Remaining in Solution ([1]; D5W, 0.1 mg/ml, 48 hrs): 97.91%
Percentage of Initial Topotecan Remaining in Solution ([1]; NS, 0.02 mg/ml, 0 hrs): 100.00%
Percentage of Initial Topotecan Remaining in Solution ([1]; NS, 0.02 mg/ml, 6 hrs): 98.58%
Percentage of Initial Topotecan Remaining in Solution ([1]; NS, 0.02 mg/ml, 24 hrs): 96.01%
Percentage of Initial Topotecan Remaining in Solution ([1]; NS, 0.02 mg/ml, 48 hrs): 102.03%
Percentage of Initial Topotecan Remaining in Solution ([1]; NS, 0.1 mg/ml, 0 hrs): 100.00%
Percentage of Initial Topotecan Remaining in Solution ([1]; NS, 0.1 mg/ml, 6 hrs): 97.71%
Percentage of Initial Topotecan Remaining in Solution ([1]; NS, 0.1 mg/ml, 24 hrs): 98.30%
Percentage of Initial Topotecan Remaining in Solution ([1]; NS, 0.1 mg/ml, 48 hrs): 98.35%
recovery (stable in a hang-bag) ([2]; dextrose, 6.7 ug/ml or 330 ug/ml): at least 95%
recovery (stable in a hang-bag) ([2]; saline, 10 ug/ml or 500 ug/ml): at least 95%
tumor size regression, sustained (ovarian cancer): > 50%
